For 55 molecules, IC50 results are on record in publication PMC12064818, “A general assay platform to study protein pharmacology using ligand-dependent structural dynamics” (Nature Communications, 2025).

Molecules are shown by their SMILES. Where only a bound is given, the exact number is not on record here.

T1 sequence (P08659 whole entry, looked up): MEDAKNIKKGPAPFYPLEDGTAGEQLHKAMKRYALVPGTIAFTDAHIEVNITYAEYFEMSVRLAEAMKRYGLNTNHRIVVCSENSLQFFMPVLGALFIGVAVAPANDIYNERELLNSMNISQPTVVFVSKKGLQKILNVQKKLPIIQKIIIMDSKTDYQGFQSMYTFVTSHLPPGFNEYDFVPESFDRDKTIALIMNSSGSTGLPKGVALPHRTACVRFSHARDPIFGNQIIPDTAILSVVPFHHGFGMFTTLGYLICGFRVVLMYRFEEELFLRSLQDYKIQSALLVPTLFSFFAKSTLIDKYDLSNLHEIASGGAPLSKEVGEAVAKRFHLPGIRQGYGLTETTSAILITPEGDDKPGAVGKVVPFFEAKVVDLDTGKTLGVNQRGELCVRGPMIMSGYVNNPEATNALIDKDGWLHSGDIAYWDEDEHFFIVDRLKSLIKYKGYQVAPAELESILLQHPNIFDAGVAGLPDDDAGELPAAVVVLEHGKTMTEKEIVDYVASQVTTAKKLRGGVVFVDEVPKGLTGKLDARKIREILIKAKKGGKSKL

This assay addresses T1, FLuc-C-HiBiT (Photinus pyralis, UniProt P08659).
T1 construct: firefly luciferase with C-terminal HiBiT tag, E. coli expressed
The experiment in a line: biochemical. Particulars: enzyme activity, 10 uM ATP; read-out: IC50 or SDR50 (mM) / FLuc E.
As for `O=[S+]([O-])(c1cccc(Cl)c1)n1c(/C=C/c2ccccc2Cl)nc2ccccc21` [NCGC00139448-01], the IC50 was found to be 0.176 µM.

Take `COc1ccc(-c2cc(N3CCCC(NC(=O)c4ccncc4)C3)[nH]n2)cc1` (stereo not shown) [NCGC00437632-01]: the IC50 is 11.1 µM.

Regarding `COc1ccc2cc(C3CN(C(=O)CNC(=O)C(C)C)CCO3)ccc2c1` (stereo not shown) [NCGC00430625-01], the IC50 worked out at 12.4 µM.

Take `CCC(=O)N1CCc2ccc(C(=O)NC3CCCCC3)cc21` [NCGC00430262-01]: the IC50 amounted to 11.1 µM.

On to `Cc1ccc(NC(=O)N2CCC(CCNC(=O)C3CC3)CC2)cc1` [NCGC00424850-01], for which the IC50 came out at 11.1 µM.

As to `O=C1c2cnc(-c3cccc(F)c3)nc2OCCN1c1ccccc1` [NCGC00413626-01], the IC50 was determined as 14.3 µM.

For the molecule `CCCCC(=O)Nc1cccc(-c2nc3ccccc3s2)c1` [NCGC00119159-01], the IC50 was found to be 11.1 µM.

`CCCc1ccc(-c2nc(C3CCOC3)no2)cc1` (stereo not shown) [NCGC00445403-01]: the IC50 worked out at 7 µM.

For `O=C(c1cc(-c2ccc(F)cc2)nc2ccccc12)N1CCC(c2nc(C3CCOCC3)no2)C1` (stereo not shown) [NCGC00453669-01], the IC50 turned out to be 9.89 µM.

`c1ccc(Nc2cc3c(cn2)CN(CC2CCOC2)CCN3)cc1` (stereo not shown) [NCGC00411051-01]: the IC50 is 20.2 µM.

On to `COc1ccccc1C(=O)Nc1onc2c1CCCC2` [NCGC00115908-01], for which the IC50 worked out at 9.89 µM.

Turning to `CCOc1ccc(C(=O)Nc2cc(-c3nc4ccccc4s3)ccc2OC)cc1` [NCGC00103040-01], the IC50 is > 30 µM.

`Cc1cn2nc(C(=O)Nc3ccc(C(=O)N4CCCC4)cc3)cc2c(=O)[nH]1` [NCGC00453923-01]: the IC50 was found to be 9.89 µM.

For the molecule `C[C@@H]1C(=O)O[C@H]2[C@H]1CC[C@@]1(C)Cc3sc(NC(=O)c4ccncc4)nc3[C@@H](C)[C@H]21` [NCGC00401418-01], the IC50 came to 0.57 µM.

As for `Cc1ccc(N2CCN(c3nc(C(=O)O)cs3)CC2)cc1` [NCGC00432723-01], the IC50 is 1.97 µM.

For `O=C(O)c1ccc(-c2ccc(N3CCCCCC3)nc2)cc1` [NCGC00432679-01], the IC50 came to 2.48 µM.

`C[C@@H]1C(=O)O[C@H]2[C@H]1CC[C@@]1(C)Cc3sc(NCc4ccccc4)nc3[C@@H](C)[C@H]21` [NCGC00391358-01]: the IC50 worked out at 7.18 µM.

On to `Cc1ccc(F)cc1-c1ccc(COc2ccc3c(cnn3CCC(=O)O)c2)cc1` [NCGC00418121-01], for which the IC50 was 18 µM.

As to `COc1ccc(-c2noc([C@@H]3C[C@H](NCc4ccccn4)CN3C)n2)cc1` [NCGC00395774-01], the IC50 worked out at 20.2 µM.

As for `Cc1noc(-c2cccn3c(CNC(=O)c4ccc(C(C)(C)C)cc4)nnc23)n1` [NCGC00457512-01], the IC50 came out at 9.89 µM.

With `Cc1ccc(C(=O)COC(=O)c2cc(-c3cccs3)nc3ccccc23)cc1` [NCGC00100788-01], the IC50 came to 12.4 µM.

With `Clc1ccc(-c2cn3cc(Cc4ccccc4)sc3n2)cc1` [NCGC00102104-01], the IC50 turned out to be 0.785 µM.

On to `Cc1csc(NC(=O)c2ccc3c(c2)OCC(=O)N(C)C3)n1` [NCGC00418513-01], for which the IC50 was 18 µM.

As for `CCC(=O)Nc1cc(-c2nc3ccccc3s2)c(Cl)cc1Cl` [NCGC00103217-01], the IC50 was > 30 µM.

For `CN1C[C@@H](N[S+](=O)([O-])c2ccc(C#N)cc2)C[C@H]1c1nc(-c2ccc(Cl)cc2)no1` [NCGC00400957-01], the IC50 was 11.1 µM.

As for `COc1cccc(C(=O)Nc2ccc(-c3nc4ccccc4s3)c(O)c2)c1` [NCGC00594708-01], the IC50 is > 30 µM.

Turning to `COc1ccc2nc(-c3ccc(Oc4ccccc4)cc3)sc2c1` [NCGC00167605-01], the IC50 is 11.1 µM.

In the case of `Cn1cc(/C=C2\C(=O)Nc3cccnc32)c2ccccc21` [NCGC00161398-03], the IC50 is 9.89 µM.

For the molecule `CCNc1cc(N2CCC(CCC(=O)O)CC2)ncn1` [NCGC00432807-01], the IC50 was found to be 5.56 µM.

Take `Fc1ccc(Cc2cn3cc(-c4ccc(F)cc4)nc3s2)cc1` [NCGC00102134-01]: the IC50 stood at 0.881 µM.

In the case of `N#Cc1c(-n2ncnc2-c2cccc(Br)c2)sc2c1CCCCC2` [NCGC00099370-01], the IC50 was determined as 3.13 µM.

As to `COc1ccccc1OC(C)C(=O)Nc1ccc(-c2nc3ccccc3s2)cc1` (stereo not shown) [NCGC00119131-01], the IC50 was > 30 µM.

Consider `CCN1C(=O)CCc2cc(NC(=O)c3ccc(OC(F)(F)F)cc3)ccc21` [NCGC00425397-01], for which the IC50 was determined as 11.1 µM.

Consider `O=C(/C=C/c1ccccc1)Nc1cc(-c2nc3cc(Cl)ccc3o2)ccc1Cl` [NCGC00102391-01], for which the IC50 was > 30 µM.

With `O=C(c1ccncc1)N1CCC(Oc2ccc(-c3noc(-c4ccccc4)n3)cc2)C1` (stereo not shown) [NCGC00440993-01], the IC50 is 12.4 µM.

Take `COc1cccc(Nc2ncc(-c3cccnc3)c3c2OCC3)c1` [NCGC00412731-01]: the IC50 worked out at 18 µM.

For `CN1CCC(NC(=O)C(C)(C)Oc2nn(Cc3ncccn3)c3ccccc23)CC1` [NCGC00419638-01], the IC50 is > 30 µM.

`c1ccc(COc2cccc(-c3nc4ccccc4s3)c2)cc1` [NCGC00167622-01]: the IC50 amounted to 4.95 µM.

As to `Oc1cc(-c2nc3ccccc3s2)cc2c1OCCN(Cc1c[nH]nc1-c1ccc(Cl)cc1)C2` [NCGC00240676-01], the IC50 was > 30 µM.

Regarding `O=C(O)c1ccc(-c2noc(-c3ccc(Cl)cc3)n2)cc1` [NCGC00168101-01], the IC50 amounted to 0.785 µM.

Take `Cc1c(CCNC(=O)c2ccc(Br)o2)sc2nc(-c3ccc(Cl)cc3)nn12` [NCGC00137117-01]: the IC50 was determined as 12.4 µM.

For `Cc1ccc(-n2nc(C)c([C@@H]3C=C[C@@H](NC(=O)NC(C)C)C3)c2C)cc1Cl` [NCGC00399958-01], the IC50 was found to be 14.3 µM.

Turning to `CCOc1ccc(-c2cc3c(=O)n(CCNC(=O)c4cccc(C#N)c4)ccn3n2)cc1` [NCGC00456938-01], the IC50 turned out to be 0.7 µM.

Take `O=C(O)C1(CCc2ccccc2)CCCN(c2ncnc3[nH]cnc23)C1` (stereo not shown) [NCGC00432626-01]: the IC50 is > 30 µM.

In the case of `Cc1ccc(-c2cc3c(=O)n(CCNC(=O)c4nn(C)c5ccccc45)ccn3n2)c(C)c1` [NCGC00456971-01], the IC50 turned out to be 1.57 µM.

For the molecule `CC(C)c1ccc(C(=O)Nc2cccc3cccnc23)cc1` [NCGC00103193-01], the IC50 is 9.89 µM.

Turning to `O=C(Nc1ccccc1)c1nc2c(o1)CCN(Cc1cccnc1)CC2` [NCGC00413263-01], the IC50 was 5.7 µM.

Consider `Fc1ccc(-c2cn3cc(Cc4ccccc4)sc3n2)cc1` [NCGC00102110-01], for which the IC50 came out at 0.279 µM.

With `c1ccc(-c2cn3c(n2)CO[C@@H](CNCc2cccs2)C3)cc1` [NCGC00393328-01], the IC50 is 20.2 µM.

With `O=C(Nc1ccccc1)c1nc2c(o1)CCN(CC1CC1)CC2` [NCGC00413351-01], the IC50 worked out at 16.1 µM.

With `COc1ccccc1-c1cc2nc(C)c(CCC(=O)O)c(C)n2n1` [NCGC00108411-01], the IC50 is 12.4 µM.

`CN(c1ccc(NC(=O)Nc2ccc(OC(F)(F)F)cc2)cc1)c1ccnc(Nc2cccc([S+](N)(=O)[O-])c2)n1` [NCGC00242042-02]: the IC50 was > 30 µM.

In the case of `CC(C)CN1CCNc2cc(-c3ccccc3)ncc2C1` [NCGC00411061-01], the IC50 amounted to 22.6 µM.

Turning to `CCOc1ccc(-c2cc3c(=O)n(CCNC(=O)c4cccc5[nH]ccc45)ccn3n2)cc1` [NCGC00456956-01], the IC50 was found to be 5.56 µM.

For `CNc1ccc2cc(-c3nc4ccc(C(=O)O)cc4s3)ccc2c1` [NCGC00655706-01], the IC50 was determined as 0.007 µM.
